PubChem BioAssay (NCI)
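Test compounds were applied to cells in 96-well plates for 48 hours at 5 doses. The concentration for full growth arrest is given as TGI.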

Columns and labels:
Assay in all cases: NCI tumour cell line growth inhibition, 48 h
[1] = test system: 786-0 renal
[2] = test system: HOP-62 NSCLC
[3] = test system: SK-MEL-5 melanoma
[4] = test system: SK-MEL-28 melanoma
[5] = test system: IGROV1 ovarian
[6] = test system: KM12 colon
[7] = test system: MDA-MB-435
[8] = test system: MDA-N
[9] = test system: HL-60(TB) leukemia
[10] = test system: EKVX NSCLC
[11] = test system: NCI-H23 lung
[12] = test system: TK-10 renal
[13] = test system: T-47D breast
[14] = test system: PC-3 prostate
[15] = test system: A549 NSCLC
[16] = test system: COLO 205 colon
[17] = test system: SF-268 CNS
[18] = test system: A498 renal
[19] = test system: SW-620 colon
[20] = test system: SNB-75 CNS
[21] = test system: UO-31 renal
[22] = test system: HS 578T breast
[23] = test system: OVCAR-5 ovarian
[24] = test system: NCI-H522 lung
[25] = test system: NCI-H460 lung
[26] = test system: NCI/ADR-RES ovarian
[27] = test system: CCRF-CEM leukemia
[28] = test system: OVCAR-8 ovarian
[29] = test system: MALME-3M melanoma
[30] = test system: UACC-257 melanoma
[31] = test system: SK-OV-3 ovarian
[32] = test system: MDA-MB-231 breast
[33] = test system: HOP-92 NSCLC
[34] = test system: LOX IMVI melanoma
[35] = test system: CAKI-1 renal
[36] = test system: SNB-19 CNS
[37] = test system: U251 CNS
[38] = test system: RPMI-8226 leukemia
[39] = test system: K-562 leukemia
[40] = test system: ACHN renal
[41] = test system: RXF 393 renal
[42] = test system: SF-295 CNS
[43] = test system: OVCAR-3 ovarian
[44] = test system: OVCAR-4 ovarian
[45] = test system: SR leukemia
[46] = test system: MCF7 breast
[47] = test system: DU-145 prostate
[48] = test system: MOLT-4 leukemia
[49] = test system: HCT-116 colon
[50] = test system: UACC-62 melanoma
[51] = test system: HCT-15 colon
[52] = test system: HCC-2998 colon
[53] = test system: SF-539 CNS
[54] = test system: BT-549 breast
[55] = test system: HT29 colon
[56] = test system: SK-MEL-2 melanoma
[57] = test system: SN12C renal
[58] = test system: M14 melanoma

CC1=C(Cc2ccccc2)C(Cc2ccccc2)=C(C)S1=O
TGI [1]: 71 µM | TGI [2]: > 100 µM | TGI [3]: 30.1 µM | TGI [4]: > 100 µM | TGI [5]: > 100 µM | TGI [6]: 36.5 µM | TGI [7]: 35.6 µM | TGI [8]: 71.2 µM | TGI [9]: 34.6 µM | TGI [10]: 46.9 µM | TGI [11]: 95.7 µM | TGI [12]: 76.2 µM | TGI [13]: 59.1 µM | TGI [14]: 54.1 µM | TGI [15]: > 100 µM | TGI [16]: 43.1 µM | TGI [17]: > 100 µM | TGI [18]: 63.7 µM | TGI [19]: > 100 µM | TGI [20]: 54.6 µM | TGI [21]: > 100 µM | TGI [22]: > 100 µM | TGI [23]: 73.2 µM | TGI [24]: 78.8 µM | TGI [25]: 99.1 µM | TGI [26]: 51.7 µM | TGI [27]: 49.9 µM | TGI [28]: > 100 µM | TGI [29]: > 100 µM | TGI [30]: 48.5 µM | TGI [31]: > 100 µM | TGI [32]: 52.3 µM | TGI [33]: > 100 µM | TGI [34]: 50.9 µM | TGI [35]: > 100 µM | TGI [36]: > 100 µM | TGI [37]: > 100 µM | TGI [38]: 54.4 µM | TGI [39]: > 100 µM | TGI [40]: > 100 µM | TGI [41]: 55.1 µM | TGI [42]: > 100 µM | TGI [43]: > 100 µM | TGI [44]: > 100 µM | TGI [45]: 53.2 µM | TGI [46]: 60 µM | TGI [47]: > 100 µM | TGI [48]: 41.5 µM | TGI [49]: 74.7 µM | TGI [50]: 34.3 µM | TGI [51]: > 100 µM | TGI [52]: 42.4 µM | TGI [53]: > 100 µM | TGI [54]: 92.4 µM | TGI [55]: 39.4 µM | TGI [56]: 35.1 µM | TGI [57]: 84.1 µM | TGI [58]: 46.3 µM
